The text below walks through data of ChEMBL document CHEMBL4043100, “Antitrichomonal activity of δ opioid receptor antagonists, 7-benzylidenenaltrexone derivatives” (Bioorg Med Chem, 2017).

In one assay the test system is Trichomonas vaginalis. Nature of the assay: Antimicrobial activity against Trichomonas vaginalis after 48 hrs by neutral red staining based invert microscopic analysis. Type of assay: functional.
Assay [1] deals with Kappa-type opioid receptor (Homo sapiens, UniProt P41145). Nature of the assay: Displacement of [3H]U-69,593 from human kappa opioid receptor expressed in CHO cell membranes by microbeta scintillation counting analysis. (Displacement assays read how much labelled ligand stays bound in the presence of the test substance.)
Kappa-type opioid receptor, sequence (P41145 whole entry): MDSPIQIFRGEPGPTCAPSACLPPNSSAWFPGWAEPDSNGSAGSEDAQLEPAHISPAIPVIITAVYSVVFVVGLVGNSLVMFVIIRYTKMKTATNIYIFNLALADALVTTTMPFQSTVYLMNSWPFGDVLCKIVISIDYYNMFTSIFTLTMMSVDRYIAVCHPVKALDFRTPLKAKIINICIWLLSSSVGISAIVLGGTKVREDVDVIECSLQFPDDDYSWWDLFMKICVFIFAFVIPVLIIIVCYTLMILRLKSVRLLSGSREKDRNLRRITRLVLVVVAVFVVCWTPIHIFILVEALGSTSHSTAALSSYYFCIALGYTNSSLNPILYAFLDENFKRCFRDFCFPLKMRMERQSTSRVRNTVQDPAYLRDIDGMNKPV
The target in the next assay is Mu-type opioid receptor (Homo sapiens, UniProt P35372). Nature of the assay: Displacement of [3H]DAMGO from human mu opioid receptor expressed in CHO cell membranes by microbeta scintillation counting analysis.
Mu-type opioid receptor, sequence (P35372 whole entry): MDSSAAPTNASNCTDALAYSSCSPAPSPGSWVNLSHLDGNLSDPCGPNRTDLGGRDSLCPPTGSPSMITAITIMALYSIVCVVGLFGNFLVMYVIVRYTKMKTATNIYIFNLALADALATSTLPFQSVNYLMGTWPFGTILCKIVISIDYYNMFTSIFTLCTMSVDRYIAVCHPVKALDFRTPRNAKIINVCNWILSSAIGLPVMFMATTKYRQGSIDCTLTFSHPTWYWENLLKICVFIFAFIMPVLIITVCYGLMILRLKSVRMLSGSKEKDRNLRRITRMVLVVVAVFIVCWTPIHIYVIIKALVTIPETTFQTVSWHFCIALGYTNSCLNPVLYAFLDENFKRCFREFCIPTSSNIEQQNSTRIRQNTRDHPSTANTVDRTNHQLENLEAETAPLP
For assay [2], the target named is Delta-type opioid receptor (Homo sapiens, UniProt P41143). Nature of the assay: Displacement of [3H]DPDPE from human delta opioid receptor expressed in CHO cell membranes by microbeta scintillation counting analysis.
Delta-type opioid receptor, sequence (P41143 whole entry): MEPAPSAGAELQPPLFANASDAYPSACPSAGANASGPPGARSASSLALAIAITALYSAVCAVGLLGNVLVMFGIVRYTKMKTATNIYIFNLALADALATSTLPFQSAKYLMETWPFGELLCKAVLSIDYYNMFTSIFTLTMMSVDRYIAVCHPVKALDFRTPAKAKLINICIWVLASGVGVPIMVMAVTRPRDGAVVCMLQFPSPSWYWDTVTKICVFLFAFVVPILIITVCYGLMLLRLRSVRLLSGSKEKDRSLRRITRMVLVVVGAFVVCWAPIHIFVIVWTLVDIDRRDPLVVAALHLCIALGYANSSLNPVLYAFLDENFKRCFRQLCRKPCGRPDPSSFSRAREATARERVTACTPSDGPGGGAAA
Assay [3] is described as follows: Antimicrobial activity against Tritrichomonas mobilensis after 48 hrs by neutral red staining based invert microscopic analysis. Type of assay: functional.

In brackets after ≈: the same amount, converted by molar mass. Bounds are passed on as bounds.

`O=C1CC[C@@]2(O)[C@H]3Cc4ccc(O)c5c4[C@@]2(CCN3CC2CC2)[C@H]1O5` [NALTREXONE]: inhibition of growth with Trichomonas vaginalis (MIC) required 80 µM (≈ 27.3 µg/mL).
`CN1CC[C@]23Cc4nc5ccccc5cc4C[C@@]2(O)[C@H]1Cc1ccc(O)cc13` gave an MIC in the assay with Trichomonas vaginalis of 80 µM (≈ 29.8 µg/mL).
The same measure, in the same setting: to `O=C1/C(=C/c2cccc(C(F)(F)F)c2)C[C@@]2(O)[C@H]3Cc4ccc(O)c5c4[C@@]2(CCN3CC2CC2)[C@H]1O5` belongs 80 µM (≈ 39.8 µg/mL).
Consider `O=C1/C(=C/c2ccccc2F)C[C@@]2(O)[C@H]3Cc4ccc(O)c5c4[C@@]2(CCN3CC2CC2)[C@H]1O5`, for which the Ki in assay [1] (read-out: Ki) was found to be 0.0351 µM; on Mu-type opioid receptor (read-out: Ki) it was 0.0128 µM; in assay [2] (read-out: Ki), 0.00294 µM. This molecule had an IC50 with Trichomonas vaginalis of 18.6 µM. This molecule also registered an MIC in the assay with Trichomonas vaginalis of 20 µM (≈ 8.95 µg/mL).
As for `Cc1ncc([N+](=O)[O-])n1CCO` [METRONIDAZOLE], the minimum inhibitory concentration (MIC) in assay [3] was found to be 2.5 µM (≈ 0.428 µg/mL); in the assay with Trichomonas vaginalis, 10 µM (≈ 1.71 µg/mL). In addition, the inhibition constant Ki entry (in assay [1]; at Mu-type opioid receptor; in assay [2]) was “Not Active” throughout. This molecule also displayed an IC50 in the assay with Trichomonas vaginalis of 5.2 µM.
On to `O=C1/C(=C/c2ccccc2Br)C[C@@]2(O)[C@H]3Cc4ccc(O)c5c4[C@@]2(CCN3CC2CC2)[C@H]1O5`, for which the MIC in the assay on Trichomonas vaginalis amounted to 80 µM (≈ 40.7 µg/mL).
The same measure, in the same setting: to `COc1cccc(/C=C2\C[C@@]3(O)[C@H]4Cc5ccc(O)c6c5[C@@]3(CCN4CC3CC3)[C@@H](O6)C2=O)c1` belongs 80 µM (≈ 36.8 µg/mL).
In the assay on Trichomonas vaginalis, `O=C1/C(=C/c2cccs2)C[C@@]2(O)[C@H]3Cc4ccc(O)c5c4[C@@]2(CCN3CC2CC2)[C@H]1O5` gave an IC50 of 21.6 µM and a minimal inhibitory concentration (MIC) of 40 µM (≈ 17.4 µg/mL).
`Oc1ccc2c3c1O[C@H]1c4oc5ccccc5c4C[C@@]4(O)[C@@H](C2)N(CC2CC2)CC[C@]314` [NALTRIBEN] yielded a minimal inhibitory concentration (MIC) in the assay with Trichomonas vaginalis of 80 µM (≈ 33.2 µg/mL).
On the same count and under the same terms, to `O=C1/C(=C/c2ccccc2Cl)C[C@@]2(O)[C@H]3Cc4ccc(O)c5c4[C@@]2(CCN3CC2CC2)[C@H]1O5` belongs greater than 320 µM; to `Oc1ccc2c3c1O[C@H]1c4[nH]c5ccccc5c4C[C@@]4(O)[C@@H](C2)N(CC2CC2)CC[C@]314` [NALTRINDOLE], 80 µM (≈ 33.2 µg/mL).
The same measure, in the same setting: for `CC1(C)SSC(C)(C)[C@H](NC(=O)[C@@H](N)Cc2ccc(O)cc2)C(=O)NCC(=O)N[C@@H](Cc2ccccc2)C(=O)N[C@@H]1C(=O)O` the value was greater than 320 µM.
H-AFEVVG-NH2 returned an MIC with Trichomonas vaginalis greater than 320 µM.
Regarding `CN(C)c1ccc(/C=C2\C[C@@]3(O)[C@H]4Cc5ccc(O)c6c5[C@@]3(CCN4CC3CC3)[C@@H](O6)C2=O)cc1`, the Ki was 0.0286 µM in assay [1] (read-out: Ki), 0.0172 µM on Mu-type opioid receptor (read-out: Ki) and 0.00372 µM in assay [2] (read-out: Ki). The molecule also gave an IC50 in the assay with Trichomonas vaginalis of 13.2 µM. The same molecule yielded an MIC in the assay with Trichomonas vaginalis of 20 µM (≈ 9.45 µg/mL).
In the assay with Trichomonas vaginalis, `N#Cc1cccc(/C=C2\C[C@@]3(O)[C@H]4Cc5ccc(O)c6c5[C@@]3(CCN4CC3CC3)[C@@H](O6)C2=O)c1` yielded an IC50 of 18 µM and an MIC of 40 µM (≈ 18.2 µg/mL).
In the case of `COc1ccc2c3c1O[C@H]1C(=O)/C(=C/c4ccccc4)C[C@@]4(O)[C@@H](C2)N(CC2CC2)CC[C@]314`, the Ki is greater than 1 µM in assay [1] (read-out: Ki), 0.499 µM on Mu-type opioid receptor (read-out: Ki) and 0.1 µM in assay [2] (read-out: Ki). Moreover, in the assay with Trichomonas vaginalis, it took 80 µM (≈ 35.5 µg/mL) to inhibit growth (MIC).
Regarding `O=C1/C(=C/c2ccc(C(F)(F)F)cc2)C[C@@]2(O)[C@H]3Cc4ccc(O)c5c4[C@@]2(CCN3CC2CC2)[C@H]1O5`, the inhibition constant Ki in assay [1] (read-out: Ki) was 0.176 µM; at Mu-type opioid receptor (read-out: Ki), 0.192 µM; in assay [2] (read-out: Ki) it was 0.0839 µM. In addition, in the assay on Trichomonas vaginalis, half-maximal inhibition (IC50) required 13.7 µM. In the assay with Trichomonas vaginalis, the MIC stood at 20 µM (≈ 9.95 µg/mL).
In the same order, the values of `COc1ccc(/C=C2\C[C@@]3(O)[C@H]4Cc5ccc(O)c6c5[C@@]3(CCN4CC3CC3)[C@@H](O6)C2=O)cc1` are 0.0278 µM, 0.00516 µM, 0.0018 µM, 14.1 µM and 20 µM (≈ 9.19 µg/mL).
On to `COc1ccccc1/C=C1\C[C@@]2(O)[C@H]3Cc4ccc(O)c5c4[C@@]2(CCN3CC2CC2)[C@@H](O5)C1=O`, for which, in the assay with Trichomonas vaginalis, the MIC is greater than 320 µM.
For `O=C1/C(=C/c2ccc(F)cc2)C[C@@]2(O)[C@H]3Cc4ccc(O)c5c4[C@@]2(CCN3CC2CC2)[C@H]1O5`, the Ki in assay [1] (read-out: Ki) turned out to be 0.108 µM; on Mu-type opioid receptor (read-out: Ki), 0.0209 µM; in assay [2] (read-out: Ki), 0.0345 µM. Moreover, in the assay on Trichomonas vaginalis, half-maximal inhibition (IC50) was put at 12.8 µM. The same molecule displayed an MIC against Trichomonas vaginalis of 20 µM (≈ 8.95 µg/mL).
Consider `O=C1/C(=C/c2ccccc2C(F)(F)F)C[C@@]2(O)[C@H]3Cc4ccc(O)c5c4[C@@]2(CCN3CC2CC2)[C@H]1O5`, for which the lowest concentration to inhibit growth with Trichomonas vaginalis (MIC) was 80 µM (≈ 39.8 µg/mL). In other words, the double-digit micromolar range.
The same measure, in the same setting: to `O=C1C(Cc2ccc(F)cc2)C[C@@]2(O)[C@H]3Cc4ccc(O)c5c4[C@@]2(CCN3CC2CC2)[C@H]1O5` (some centres not stated) belongs greater than 320 µM; to `COC(=O)/C=C/C(=O)N[C@@H]1CC[C@@]2(O)[C@H]3Cc4ccc(O)c5c4[C@@]2(CCN3CC2CC2)[C@H]1O5`, 80 µM (≈ 36.4 µg/mL).
As for `O=C1/C(=C/c2ccc(Br)cc2)C[C@@]2(O)[C@H]3Cc4ccc(O)c5c4[C@@]2(CCN3CC2CC2)[C@H]1O5`, the Ki in assay [1] (read-out: Ki) is 0.0704 µM; at Mu-type opioid receptor (read-out: Ki), 0.00504 µM; in assay [2] (read-out: Ki) it was 0.00419 µM. In addition, half-maximal inhibition with Trichomonas vaginalis (IC50) was put at 11.2 µM. Further, in the assay on Trichomonas vaginalis, the MIC is 20 µM (≈ 10.2 µg/mL).
With `O=C1/C(=C/c2ccccc2)C[C@@]2(O)[C@H]3Cc4ccc(O)c5c4[C@@]2(CCN3CC2CC2)[C@H]1O5` [BNTX], the MIC is greater than 320 µM in assay [3] and 40 µM (≈ 17.2 µg/mL) in the assay with Trichomonas vaginalis. The results for the Ki (in assay [1] (read-out: Ki); at Mu-type opioid receptor (read-out: Ki); in assay [2] (read-out: Ki)) were 0.0328 µM, 0.011 µM and 0.00281 µM, respectively. Also, in the assay with Trichomonas vaginalis, it took 21.7 µM to reach half-maximal inhibition (IC50).
For `N#Cc1ccc(/C=C2\C[C@@]3(O)[C@H]4Cc5ccc(O)c6c5[C@@]3(CCN4CC3CC3)[C@@H](O6)C2=O)cc1`, the figures for the Ki (in assay [1] (read-out: Ki); on Mu-type opioid receptor (read-out: Ki); in assay [2] (read-out: Ki)) were 0.209 µM, 0.0327 µM and 0.0181 µM, respectively. Moreover, the IC50 with Trichomonas vaginalis worked out at 13.2 µM. For the same molecule, in the assay with Trichomonas vaginalis, the MIC worked out at 20 µM (≈ 9.09 µg/mL).
In turn, `COc1ccc2c3c1O[C@H]1C(=O)/C(=C/c4ccc(F)cc4)C[C@@]4(O)[C@@H](C2)N(CC2CC2)CC[C@]314` had an MIC in the assay with Trichomonas vaginalis of 80 µM (≈ 36.9 µg/mL).
In the case of `O=C1/C(=C/c2ccco2)C[C@@]2(O)[C@H]3Cc4ccc(O)c5c4[C@@]2(CCN3CC2CC2)[C@H]1O5`, the lowest concentration to inhibit growth against Trichomonas vaginalis (MIC) was 160 µM (≈ 67.1 µg/mL). This MIC lies about 2-fold higher than the previous one.
As for `O=C1/C(=C/c2ccc(Cl)cc2)C[C@@]2(O)[C@H]3Cc4ccc(O)c5c4[C@@]2(CCN3CC2CC2)[C@H]1O5`, the Ki was 0.0786 µM in assay [1] (read-out: Ki), 0.00613 µM at Mu-type opioid receptor (read-out: Ki) and 0.00822 µM in assay [2] (read-out: Ki). This molecule also yielded an IC50 in the assay on Trichomonas vaginalis of 12.7 µM. Further, the MIC with Trichomonas vaginalis amounted to 20 µM (≈ 9.28 µg/mL).
The like results for `O=C1/C(=C/c2cccc(F)c2)C[C@@]2(O)[C@H]3Cc4ccc(O)c5c4[C@@]2(CCN3CC2CC2)[C@H]1O5` were, in that order, 0.049 µM, 0.0107 µM, 0.00837 µM, 14.2 µM and 20 µM (≈ 8.95 µg/mL).
`Oc1ccc2c3c1O[C@H]1c4[nH]c5c(c4C[C@@]4(O)[C@@H](C2)N(CC2CC2)CC[C@]314)C[C@@]1(O)[C@H]2Cc3ccc(O)c4c3[C@@]1(CCN2CC1CC1)[C@H]5O4` [NORBINALTORPHIMINE] yielded an MIC with Trichomonas vaginalis greater than 320 µM.
Same read-out and setting: to `O=C1C(Cc2ccccc2)C[C@@]2(O)[C@H]3Cc4ccc(O)c5c4[C@@]2(CCN3CC2CC2)[C@H]1O5` (some centres not stated) belongs 80 µM (≈ 34.5 µg/mL); to `COc1ccc(/C=C2\C[C@@]3(O)[C@H]4Cc5ccc(OC)c6c5[C@@]3(CCN4CC3CC3)[C@@H](O6)C2=O)cc1`, 80 µM (≈ 37.9 µg/mL).
The same measure, in the same setting: to `C=CCN1C[C@H](C)N([C@H](c2ccc(C(=O)N(CC)CC)cc2)c2cccc(OC)c2)C[C@H]1C` [SNC-80] belongs greater than 320 µM; to `O=C1/C(=C/c2c(Cl)cccc2Cl)C[C@@]2(O)[C@H]3Cc4ccc(O)c5c4[C@@]2(CCN3CC2CC2)[C@H]1O5`, greater than 320 µM.
For the molecule `O=C1/C(=C/c2ccc(I)cc2)C[C@@]2(O)[C@H]3Cc4ccc(O)c5c4[C@@]2(CCN3CC2CC2)[C@H]1O5`, the MIC in assay [3] was greater than 320 µM; in the assay on Trichomonas vaginalis, 20 µM (≈ 11.1 µg/mL). The Ki in assay [1] (read-out: Ki) turned out to be 0.126 µM; on Mu-type opioid receptor (read-out: Ki), 0.0199 µM; in assay [2] (read-out: Ki), 0.00215 µM. The same molecule gave an IC50 in the assay on Trichomonas vaginalis of 10.5 µM.
Consider `O=C1/C(=C/c2ccnc3ccccc23)C[C@@]2(O)[C@H]3Cc4ccc(O)c5c4[C@@]2(CCN3CC2CC2)[C@H]1O5`, for which, in the assay on Trichomonas vaginalis, the IC50 came out at 17.2 µM and the MIC was 40 µM (≈ 19.2 µg/mL).
In the assay with Trichomonas vaginalis, `COc1ccc2c3c1O[C@H]1C(=O)C(Cc4ccccc4)C[C@@]4(O)[C@@H](C2)N(CC2CC2)CC[C@]314` (some centres not stated) returned an MIC greater than 320 µM.
On to `CN(C(=O)/C=C/c1ccoc1)[C@@H]1CC[C@@]2(O)[C@H]3Cc4ccc(O)c5c4[C@@]2(CCN3CC2CC2)[C@H]1O5` [NALFURAFINE], for which the minimal inhibitory concentration (MIC) with Trichomonas vaginalis stood at 80 µM (≈ 38.1 µg/mL).
Still for that read-out and setting: to `COc1ccc(CC2C[C@@]3(O)[C@H]4Cc5ccc(O)c6c5[C@@]3(CCN4CC3CC3)[C@@H](O6)C2=O)cc1` (some centres not stated) belongs greater than 320 µM.

As a reminder, the MIC is the lowest concentration that inhibits growth of the organism. Lower therefore signals a more susceptible organism. As usually defined, the Ki is the equilibrium dissociation constant of an inhibitor or competing ligand from its target. One may read the IC50 as the concentration at which inhibition is half-maximal. Higher therefore signals a need for much substance.
